Measured values as given in the supplement of paper PMC10307832.

Assays:
Experiment in all cases: relative viability (nuclei count vs DMSO), 5 days (fraction); higher = more cells survive
[1] = system: H3255
Method in brief: (§1)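 Five library-drug doses in √10 steps were combined with a fixed anchor-drug dose, or a single drug was given alone, by pin tool to lung cancer cell lines in 1536-well plates the day after seeding. Nuclei were stained and counted after 5 days. Relative viability is the nuclei count in treated wells over that in vehicle wells, taken as the median of duplicate plates.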

[2] = system: PC-14
Method in brief: as §1

[3] = system: NCI-H2023
Method in brief: as §1

[4] = system: NCI-H2085
Method in brief: as §1

[5] = system: HOP-62
Method in brief: as §1

[6] = system: NCI-H2009
Method in brief: as §1

[7] = system: NCI-H1915
Method in brief: as §1

[8] = system: NCI-H661
Method in brief: as §1

[9] = system: SK-LU-1
Method in brief: as §1

[10] = system: EPLC-272H
Method in brief: as §1

[11] = system: LCLC-97TM1
Method in brief: as §1

[12] = system: NCI-H1993
Method in brief: as §1

[13] = system: NCI-H2126
Method in brief: as §1

[14] = system: NCI-H727
Method in brief: as §1

[15] = system: NCI-H322M
Method in brief: as §1

[16] = system: SW 1573
Method in brief: as §1

[17] = system: EMC-BAC-2
Method in brief: as §1

[18] = system: NCI-H1563
Method in brief: as §1

[19] = system: LXF-289
Method in brief: as §1

[20] = system: NCI-H2347
Method in brief: as §1

[21] = system: NCI-H647
Method in brief: as §1

Question: What does the source list for `O=C(O)c1ccc(-c2c[nH]c3ncc(-c4ccccc4)cc23)cc1C1CCCC1` + C[C@]1(O)C[C@@H](c2nc(-c3ccc4ccc(-c5ccccc5)nc4c3)c3c(N)nccn32)C1 [Linsitinib] (partner 1 µM)?
Answer: relative viability ([1]; first compound 0.04 µM): 1; relative viability ([1]; first compound 0.1265 µM): 0.994; relative viability ([1]; first compound 0.4 µM): 0.935; relative viability ([1]; first compound 1.265 µM): 0.909; relative viability ([2]; first compound 0.04 µM): 0.937; relative viability ([2]; first compound 0.1265 µM): 0.947; relative viability ([2]; first compound 0.4 µM): 1.01; relative viability ([2]; first compound 1.265 µM): 0.798; relative viability ([3]; first compound 0.04 µM): 0.699; relative viability ([3]; first compound 0.1265 µM): 0.665; relative viability ([3]; first compound 0.4 µM): 0.734; relative viability ([3]; first compound 1.265 µM): 0.676; relative viability ([4]; first compound 0.04 µM): 0.938; relative viability ([4]; first compound 0.1265 µM): 1.01; relative viability ([4]; first compound 0.4 µM): 0.8; relative viability ([4]; first compound 1.265 µM): 0.644; relative viability ([5]; first compound 0.04 µM): 1.1; relative viability ([5]; first compound 0.1265 µM): 1.03; relative viability ([5]; first compound 0.4 µM): 1.04; relative viability ([5]; first compound 1.265 µM): 0.794; relative viability ([6]; first compound 0.04 µM): 1.23; relative viability ([6]; first compound 0.1265 µM): 1.21; relative viability ([6]; first compound 0.4 µM): 1.15; relative viability ([6]; first compound 1.265 µM): 1.08; relative viability ([7]; first compound 0.04 µM): 1.06; relative viability ([7]; first compound 0.1265 µM): 1.1; relative viability ([7]; first compound 0.4 µM): 0.946; relative viability ([7]; first compound 1.265 µM): 0.799; relative viability ([8]; first compound 0.04 µM): 0.576; relative viability ([8]; first compound 0.1265 µM): 0.603; relative viability ([8]; first compound 0.4 µM): 0.572; relative viability ([8]; first compound 1.265 µM): 0.736; relative viability ([9]; first compound 0.04 µM): 1.06; relative viability ([9]; first compound 0.1265 µM): 1; relative viability ([9]; first compound 0.4 µM): 0.943; relative viability ([9]; first compound 1.265 µM): 0.851; relative viability ([10]; first compound 0.04 µM): 1.16; relative viability ([10]; first compound 0.1265 µM): 1.19; relative viability ([10]; first compound 0.4 µM): 1.42; relative viability ([10]; first compound 1.265 µM): 0.857; relative viability ([11]; first compound 0.04 µM): 0.204; relative viability ([11]; first compound 0.1265 µM): 0.218; relative viability ([11]; first compound 0.4 µM): 0.175; relative viability ([11]; first compound 1.265 µM): 0.166; relative viability ([12]; first compound 0.04 µM): 0.745; relative viability ([12]; first compound 0.4 µM): 0.681; relative viability ([12]; first compound 1.265 µM): 0.753; relative viability ([13]; first compound 0.04 µM): 0.723; relative viability ([13]; first compound 0.1265 µM): 0.732; relative viability ([13]; first compound 0.4 µM): 0.7; relative viability ([13]; first compound 1.265 µM): 0.623; relative viability ([14]; first compound 0.04 µM): 0.381; relative viability ([14]; first compound 0.1265 µM): 0.361; relative viability ([14]; first compound 0.4 µM): 0.243; relative viability ([14]; first compound 1.265 µM): 0.294; relative viability ([15]; first compound 0.04 µM): 0.913; relative viability ([15]; first compound 0.1265 µM): 0.911; relative viability ([15]; first compound 0.4 µM): 0.92; relative viability ([15]; first compound 1.265 µM): 0.791; relative viability ([16]; first compound 0.04 µM): 0.753; relative viability ([16]; first compound 0.1265 µM): 0.763; relative viability ([16]; first compound 0.4 µM): 0.882; relative viability ([16]; first compound 1.265 µM): 0.569; relative viability ([17]; first compound 0.04 µM): 0.823; relative viability ([17]; first compound 0.1265 µM): 0.866; relative viability ([17]; first compound 0.4 µM): 0.819; relative viability ([17]; first compound 1.265 µM): 0.79; relative viability ([18]; first compound 0.04 µM): 1.22; relative viability ([18]; first compound 0.1265 µM): 1.17; relative viability ([18]; first compound 0.4 µM): 1.19; relative viability ([18]; first compound 1.265 µM): 1.18; relative viability ([19]; first compound 0.04 µM): 0.94; relative viability ([19]; first compound 0.1265 µM): 0.937; relative viability ([19]; first compound 0.4 µM): 0.706; relative viability ([19]; first compound 1.265 µM): 0.322; relative viability ([20]; first compound 0.04 µM): 0.975; relative viability ([20]; first compound 0.1265 µM): 1.11; relative viability ([20]; first compound 0.4 µM): 0.927; relative viability ([20]; first compound 1.265 µM): 0.67; relative viability ([21]; first compound 0.04 µM): 1.18; relative viability ([21]; first compound 0.1265 µM): 1.18; relative viability ([21]; first compound 0.4 µM): 1.02; relative viability ([21]; first compound 1.265 µM): 1.03
